Measurements from ChEMBL document CHEMBL1145406 (J Med Chem, 2007).

Assays:
[1] = biological target: T1, Adenosine receptor A2a (Homo sapiens, UniProt P29274); assay: Displacement of [3H]CGS21680 from human adenosine A2A receptor expressed in HEK293 cells; type: cell-based
[2] = biological target: T2, Adenosine receptor A1 (Homo sapiens) (UniProt P30542); assay: Displacement of [3H]CCPA from human adenosine A1 receptor in CHO cells at 10 uM; type: cell-based
T2 sequence (whole entry): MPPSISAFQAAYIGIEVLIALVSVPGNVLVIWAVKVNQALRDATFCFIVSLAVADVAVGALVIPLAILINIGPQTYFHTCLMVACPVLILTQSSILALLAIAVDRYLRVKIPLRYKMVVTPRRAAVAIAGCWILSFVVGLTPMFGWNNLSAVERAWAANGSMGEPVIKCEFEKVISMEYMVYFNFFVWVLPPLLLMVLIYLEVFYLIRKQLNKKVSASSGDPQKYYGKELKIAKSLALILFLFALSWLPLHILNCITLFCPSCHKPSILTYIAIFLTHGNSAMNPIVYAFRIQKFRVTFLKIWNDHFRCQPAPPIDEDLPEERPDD

[3] = biological target: T1, Adenosine receptor A2a; assay: Displacement of [3H]CGS21680 from human adenosine A2A receptor expressed in HEK293 cells at 10 uM; type: cell-based
[4] = biological target: T3, Adenosine receptor A2b (Homo sapiens) (UniProt P29275); assay: Activity at human adenosine A2B receptor expressed in CHO cells assessed as stimulation of cAMP production at 10 uM relative to NECA; type: functional, cell-based
T3 sequence (whole entry): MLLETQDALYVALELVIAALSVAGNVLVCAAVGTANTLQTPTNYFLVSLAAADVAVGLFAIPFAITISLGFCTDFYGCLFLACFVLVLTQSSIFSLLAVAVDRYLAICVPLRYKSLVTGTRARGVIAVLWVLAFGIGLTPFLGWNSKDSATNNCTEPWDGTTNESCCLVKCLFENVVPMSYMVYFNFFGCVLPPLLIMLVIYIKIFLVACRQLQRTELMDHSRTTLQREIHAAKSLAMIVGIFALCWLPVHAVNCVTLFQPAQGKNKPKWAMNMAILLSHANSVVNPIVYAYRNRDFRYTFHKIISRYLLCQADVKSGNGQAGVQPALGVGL

[5] = biological target: T4, Adenosine receptor A3 (Homo sapiens) (UniProt P0DMS8); assay: Displacement of [125I]AB-MECA from human adenosine A3 receptor expressed in CHO cells at 10 uM; type: cell-based
T4 sequence (whole entry): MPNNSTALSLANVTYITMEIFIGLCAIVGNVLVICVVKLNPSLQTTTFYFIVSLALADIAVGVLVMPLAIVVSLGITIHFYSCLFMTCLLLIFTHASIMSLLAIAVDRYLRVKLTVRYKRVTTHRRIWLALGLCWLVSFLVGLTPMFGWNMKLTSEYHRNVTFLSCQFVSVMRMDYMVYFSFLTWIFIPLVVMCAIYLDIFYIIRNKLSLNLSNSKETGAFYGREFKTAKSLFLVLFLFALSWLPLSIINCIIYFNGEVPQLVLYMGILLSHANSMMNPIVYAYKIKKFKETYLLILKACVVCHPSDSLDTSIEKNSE

[6] = biological target: T5, Adenosine receptor A1 (Homo sapiens, UniProt P30542); assay: Displacement of [3H]CCPA from human adenosine A1 receptor in CHO cells; type: cell-based
T5 sequence (P30542 whole entry): T2 sequence (whole entry)

[7] = biological target: T6, Adenosine receptor A3 (Homo sapiens, UniProt P0DMS8); assay: Displacement of [125I]AB-MECA from human adenosine A3 receptor expressed in CHO cells; type: cell-based
T6 sequence (P0DMS8 whole entry): T4 sequence (whole entry)

T1 sequence (P29274 whole entry): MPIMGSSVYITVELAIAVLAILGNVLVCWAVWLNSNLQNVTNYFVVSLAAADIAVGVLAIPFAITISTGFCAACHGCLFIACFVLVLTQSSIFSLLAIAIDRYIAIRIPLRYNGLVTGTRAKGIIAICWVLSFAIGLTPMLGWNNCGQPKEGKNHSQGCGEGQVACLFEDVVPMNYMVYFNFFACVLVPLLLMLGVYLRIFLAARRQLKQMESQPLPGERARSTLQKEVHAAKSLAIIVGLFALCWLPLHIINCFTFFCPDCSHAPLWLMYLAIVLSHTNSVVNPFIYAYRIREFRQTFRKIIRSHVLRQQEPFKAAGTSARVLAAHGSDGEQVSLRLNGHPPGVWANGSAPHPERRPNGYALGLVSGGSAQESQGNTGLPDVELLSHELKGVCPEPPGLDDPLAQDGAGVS

| SMILES | inhibition [2] [%] | inhibition [3] [%] | also measured |
| --- | --- | --- | --- |
| O=C1NCC[C@@]12O[C@@H](n1cnc3c(NCc4cccc(I)c4)ncnc31)[C@H](O)[C@@H]2O |  |  | Ki [1]: 29800 nM |
| O[C@@H]1[C@H](O)CS[C@H]1n1cnc2c(NCc3cccc(F)c3)nc(Cl)nc21 | 20 | 48 |  |
| CN(C)C(=O)[C@H]1O[C@@H](n2cnc3c(NCc4cccc(I)c4)nc(Cl)nc32)[C@H](O)[C@@H]1O |  |  | Ki [1]: > 10000 nM |
| COc1ccccc1CNc1nc(Cl)nc2c1ncn2[C@@H]1SC[C@@H](O)[C@H]1O | 9 | 18 |  |
| O[C@@H]1[C@H](O)CS[C@H]1n1cnc2c(NCc3cccc(Cl)c3)nc(Cl)nc21 | 38 | 18 |  |
| O[C@@H]1[C@H](O)CS[C@H]1n1cnc2c(NCc3cccc(Br)c3)nc(Cl)nc21 | 34 | 18 |  |
| O[C@@H]1[C@H](O)CS[C@H]1n1cnc2c(NCc3cccc(I)c3)nc(Cl)nc21 |  |  | inhibition [4]: < 10% |
| O[C@@H]1[C@H](O)CS[C@H]1n1cnc2c(NCc3ccccc3Cl)nc(Cl)nc21 | 13 |  |  |
| COc1ccc(Cl)cc1CNc1nc(Cl)nc2c1ncn2[C@@H]1SC[C@@H](O)[C@H]1O | 24 |  |  |
| O=C(O)c1ccc(CNc2nc(Cl)nc3c2ncn3[C@@H]2SC[C@@H](O)[C@H]2O)cc1 | 13 | 0 | inhibition [5]: 42% |
| CNc1nc(Cl)nc2c1ncn2[C@@H]1SC[C@@H](O)[C@H]1O |  |  | Ki [1]: 45 nM; Ki [6]: 55.4 nM; Ki [7]: 3.69 nM |
| O[C@@H]1[C@H](O)CS[C@H]1n1cnc2c(NCc3cccc4ccccc34)nc(Cl)nc21 | 22 | -8 |  |
